According to ChEMBL document CHEMBL6134931, “Lysine-Targeted Covalent Strategy Leading to the Discovery of Novel Potent PROTAC-Based PI3Kδ Degraders” (J Med Chem, 2025):
One block for each compound: values may come before it. Calls of active or inactive are those of the source. No cut-off for these calls is given here.

Tests used:
[1] = tested on: SU-DHL-6; experiment: Inhibition of AKT phosphorylation in human SU-DHL-6 cells at 0.1 to 1 uM incubated for 24 hrs by Western blot analysis; type: cell-based; settings: dose 0.1-1 µM
[2] = tested on: Pfeiffer; experiment: Antiproliferative activity against human Pfeiffer cells assessed as cell growth inhibition incubated for 72 hrs by MTT assay; type: functional
[3] = tested on: SU-DHL-6; experiment: Antiproliferative activity against human SU-DHL-6 cells assessed as cell growth inhibition incubated for 72 hrs by MTT assay; type: functional
[4] = tested on: SU-DHL-6; experiment: Inhibition of AKT phosphorylation in human SU-DHL-6 cells at higher concentration incubated for 24 hrs by Western blot analysis; type: cell-based
[5] = tested on: SU-DHL-6; experiment: Induction of apoptosis in human SU-DHL-6 cells assessed as late apoptotic cells at 0.01 uM incubated for 24 hrs by Annexin V-FITC/PI staining based flow cytometric analysis (reference value: 4.75 %); type: functional
[6] = tested on: SU-DHL-6; experiment: Inhibition of AKT phosphorylation in human SU-DHL-6 cells at 1 to 10000 nM incubated for 24 hrs by Western blot analysis; type: cell-based; settings: dose 1-10000 nM
[7] = tested on: SU-DHL-6; experiment: Induction of apoptosis in human SU-DHL-6 cells assessed as late apoptotic cells at 1 uM incubated for 24 hrs by Annexin V-FITC/PI staining based flow cytometric analysis (reference value: 4.75 %); type: functional
[8] = tested on: SU-DHL-6; experiment: Induction of apoptosis in human SU-DHL-6 cells assessed as necrotic cells at 0.01 uM incubated for 24 hrs by Annexin V-FITC/PI staining based flow cytometric analysis (reference value: 0.39 %); type: functional
[9] = tested on: SU-DHL-6; experiment: Induction of apoptosis in human SU-DHL-6 cells assessed as early apoptotic cells at 1 uM incubated for 24 hrs by Annexin V-FITC/PI staining based flow cytometric analysis (reference value: 2.32 %); type: functional
[10] = tested on: SU-DHL-6; experiment: Induction of apoptosis in human SU-DHL-6 cells assessed as late apoptotic cells at 0.1 uM incubated for 24 hrs by Annexin V-FITC/PI staining based flow cytometric analysis (reference value: 4.75 %); type: functional
[11] = tested on: SU-DHL-6; experiment: Induction of autophagy in human SU-DHL-6 cells assessed as increase in LC3-II to LC3-I ratio at 1 to 100 nM incubated for 24 hrs by Western blot analysis; type: functional, cell-based; settings: dose 1-100 nM
[12] = tested on: SU-DHL-6; experiment: Induction of apoptosis in human SU-DHL-6 cells assessed as viable cells at 0.1 uM incubated for 24 hrs by Annexin V-FITC/PI staining based flow cytometric analysis (reference value: 92.54 %); type: functional; settings: read-out: Activity
[13] = tested on: SU-DHL-6; experiment: Induction of apoptosis in human SU-DHL-6 cells assessed as necrotic cells at 1 uM incubated for 24 hrs by Annexin V-FITC/PI staining based flow cytometric analysis (reference value: 0.39 %); type: functional
[14] = tested on: SU-DHL-6; experiment: Induction of apoptosis in human SU-DHL-6 cells assessed as early apoptotic cells at 0.01 uM incubated for 24 hrs by Annexin V-FITC/PI staining based flow cytometric analysis (reference value: 2.32 %); type: functional
[15] = tested on: SU-DHL-6; experiment: Cell cycle arrest in human SU-DHL-6 cells assessed as increase in G1 phase cells at 0.1 uM incubated for 24 hrs by PI staining based flow cytometric analysis; type: functional
[16] = tested on: SU-DHL-6; experiment: Induction of apoptosis in human SU-DHL-6 cells assessed as viable cells at 1 uM incubated for 24 hrs by Annexin V-FITC/PI staining based flow cytometric analysis (reference value: 92.54 %); type: functional; settings: read-out: Activity
[17] = tested on: SU-DHL-6; experiment: Induction of apoptosis in human SU-DHL-6 cells assessed as necrotic cells at 0.1 uM incubated for 24 hrs by Annexin V-FITC/PI staining based flow cytometric analysis (reference value: 0.39 %); type: functional
[18] = tested on: SU-DHL-6; experiment: Induction of apoptosis in human SU-DHL-6 cells assessed as viable cells at 0.01 uM incubated for 24 hrs by Annexin V-FITC/PI staining based flow cytometric analysis (reference value: 92.54 %); type: functional; settings: read-out: Activity
[19] = tested on: SU-DHL-6; experiment: Induction of apoptosis in human SU-DHL-6 cells assessed as early apoptotic cells at 0.1 uM incubated for 24 hrs by Annexin V-FITC/PI staining based flow cytometric analysis (reference value: 2.32 %); type: functional
[20] = tested on: SU-DHL-6; experiment: Cell cycle arrest in human SU-DHL-6 cells assessed as increase in G1 phase cells incubated for 24 hrs by PI staining based flow cytometric analysis; type: functional; settings: dose 0.01-1 µM

Compound: COc1ncc(-c2ccc3ncnc(N[C@H]4CCN(C(=O)C5CCN(CCCCCCC(=O)N[C@H](C(=O)N6C[C@H](O)C[C@H]6C(=O)NCc6ccc(-c7scnc7C)cc6)C(C)(C)C)CC5)C4)c3n2)cc1C(=O)Oc1ccccc1
inhibition [1]: Active | GI50 [2]: 2960 nM | GI50 [3]: 2630 nM

Compound: COc1ncc(-c2ccc3ncnc(N[C@H]4CCN(CCCCCCC(=O)N[C@H](C(=O)N5C[C@H](O)C[C@H]5C(=O)NCc5ccc(-c6scnc6C)cc5)C(C)(C)C)C4)c3n2)cc1C(=O)Oc1ccccc1
inhibition [1]: Active | GI50 [2]: 1410 nM | GI50 [3]: 1230 nM

Compound: COc1ncc(-c2ccc3ncnc(N[C@H]4CCN(C(=O)C5CCN(CCCCCCCCCC(=O)N[C@H](C(=O)N6C[C@@H](O)C[C@H]6C(=O)N[C@@H](C)c6ccc(-c7scnc7C)cc6)C(C)(C)C)CC5)C4)c3n2)cc1C(=O)Oc1ccccc1
inhibition [4]: Active | GI50 [3]: 870 nM

Compound: COc1ncc(-c2ccc3ncnc(N[C@H]4CCN(CCCCCCCCC(=O)N[C@H](C(=O)N5C[C@H](O)C[C@H]5C(=O)NCc5ccc(-c6scnc6C)cc5)C(C)(C)C)C4)c3n2)cc1C(=O)Oc1ccccc1
inhibition [1]: Active | GI50 [2]: 1250 nM | GI50 [3]: 1370 nM

Compound: COc1ncc(-c2ccc3ncnc(N[C@H]4CCN(C(=O)C5CCN(CCCCCC(=O)N[C@H](C(=O)N6C[C@H](O)C[C@H]6C(=O)NCc6ccc(-c7scnc7C)cc6)C(C)(C)C)CC5)C4)c3n2)cc1C(=O)Oc1ccccc1
inhibition [1]: Active | GI50 [2]: > 10000 nM | GI50 [3]: 2470 nM

Compound: COc1ncc(-c2ccc3ncnc(N[C@H]4CCN(C(=O)C5CCN(CCCCCCCC(=O)N[C@H](C(=O)N6C[C@H](O)C[C@H]6C(=O)NCc6ccc(-c7scnc7C)cc6)C(C)(C)C)CC5)C4)c3n2)cc1C(=O)Oc1ccccc1
inhibition [1]: Active | GI50 [2]: 770 nM | GI50 [3]: 760 nM

Compound: COc1ncc(-c2ccc3ncnc(N[C@H]4CCN(C(=O)C5CCN(CCCCCCCCCC(=O)N[C@H](C(=O)N6C[C@H](O)C[C@H]6C(=O)N[C@@H](C)c6ccc(-c7scnc7C)cc6)C(C)(C)C)CC5)C4)c3n2)cc1C(=O)Nc1ccccc1
inhibition [4]: Active | GI50 [3]: 900 nM

Compound: COc1ncc(-c2ccc3ncnc(N[C@H]4CCN(C(=O)C5CCN(CCCCCCCCCC(=O)N[C@H](C(=O)N6C[C@H](O)C[C@H]6C(=O)NCc6ccc(-c7scnc7C)cc6)C(C)(C)C)CC5)C4)c3n2)cc1C(=O)Oc1ccccc1
inhibition [1]: Active | Activity [5]: 4.79% | inhibition [6]: Active | Activity [7]: 72.97% | Activity [8]: 0.11% | Activity [9]: 1.16% | Activity [10]: 7.29% | Activity [11]: Active | viability at 0.1 µM [12]: 90.1% | Activity [13]: 5.5% | Activity [14]: 2.73% | GI50 [2]: 370 nM | Activity [15]: Active; More Potent Than 10 Um Idelalisib | viability at 1 µM [16]: 20.4% | Activity [17]: 0.31% | viability at 0.01 µM [18]: 92.4% | GI50 [3]: 200 nM | Activity [19]: 2.29% | Activity [20]: Dose-dependent-effect

Compound: COc1ncc(-c2ccc3ncnc(N[C@H]4CCN(C(=O)C5CCN(CCCCCCCCCCC(=O)N[C@H](C(=O)N6C[C@H](O)C[C@H]6C(=O)NCc6ccc(-c7scnc7C)cc6)C(C)(C)C)CC5)C4)c3n2)cc1C(=O)Oc1ccccc1
inhibition [1]: Active | inhibition [6]: Active | Activity [11]: Active | GI50 [2]: 340 nM | GI50 [3]: 180 nM

Compound: COc1ncc(-c2ccc3ncnc(N[C@H]4CCN(C(=O)C5CCN(C(=O)CCCCCCCCCN[C@H](C(=O)N6C[C@H](O)C[C@H]6C(=O)NCc6ccc(-c7scnc7C)cc6)C(C)(C)C)CC5)C4)c3n2)cc1C(=O)Oc1ccccc1
inhibition [1]: Active | GI50 [2]: > 10000 nM | GI50 [3]: 300 nM

Compound: COc1ncc(-c2ccc3ncnc(N[C@H]4CCN(CCCCCCCC(=O)N[C@H](C(=O)N5C[C@H](O)C[C@H]5C(=O)NCc5ccc(-c6scnc6C)cc5)C(C)(C)C)C4)c3n2)cc1C(=O)Oc1ccccc1
inhibition [1]: Active | GI50 [2]: 1280 nM | GI50 [3]: 900 nM

Compound: COc1ncc(-c2ccc3ncnc(N[C@H]4CCN(C(=O)C5CCN(CCCCCCCCCCCC(=O)N[C@H](C(=O)N6C[C@H](O)C[C@H]6C(=O)NCc6ccc(-c7scnc7C)cc6)C(C)(C)C)CC5)C4)c3n2)cc1C(=O)Oc1ccccc1
inhibition [1]: Active | GI50 [2]: 1940 nM | GI50 [3]: 400 nM

Compound: COc1ncc(-c2ccc3ncnc(N[C@H]4CCN(C(=O)C5CCN(CCCCCCCCC(=O)N[C@H](C(=O)N6C[C@H](O)C[C@H]6C(=O)NCc6ccc(-c7scnc7C)cc6)C(C)(C)C)CC5)C4)c3n2)cc1C(=O)Oc1ccccc1
inhibition [1]: Active | GI50 [2]: 600 nM | GI50 [3]: 730 nM

Compound: COc1ncc(-c2ccc3ncnc(N[C@H]4CCN(CCCCCCCCCC(=O)N[C@H](C(=O)N5C[C@H](O)C[C@H]5C(=O)NCc5ccc(-c6scnc6C)cc5)C(C)(C)C)C4)c3n2)cc1C(=O)Oc1ccccc1
inhibition [1]: Active | GI50 [2]: 1370 nM | GI50 [3]: 2480 nM

Compound: COc1ncc(-c2ccc3ncnc(N[C@H]4CCN(C(=O)C5CCN(CCCCCCCCCCCCC(=O)N[C@H](C(=O)N6C[C@H](O)C[C@H]6C(=O)NCc6ccc(-c7scnc7C)cc6)C(C)(C)C)CC5)C4)c3n2)cc1C(=O)Oc1ccccc1
inhibition [1]: Active | GI50 [2]: 1060 nM | GI50 [3]: 480 nM

Continued, in another order:

GI50 [3]: > 10000 nM
Compound: COc1ncc(-c2ccc3ncnc(N[C@H]4CCN(C(=O)CCC(=O)NCCC(=O)Nc5cccc6c5CN(C5CCC(=O)NC5=O)C6=O)C4)c3c2)cc1C#N (some centres not stated)
inhibition [1]: inactive

GI50 [3]: > 10000 nM
Compound: COc1ncc(-c2ccc3ncnc(N[C@H]4CCN(C(=O)CCCCC(=O)Nc5cccc6c5CN(C5CCC(=O)NC5=O)C6=O)C4)c3c2)cc1C#N (some centres not stated)
inhibition [1]: inactive

GI50 [3]: > 10000 nM
Compound: COc1ncc(-c2ccc3ncnc(N[C@H]4CCN(C(=O)CCC(=O)NCCOCCOCC(=O)Nc5cccc6c5CN(C5CCC(=O)NC5=O)C6=O)C4)c3c2)cc1C#N (some centres not stated)
inhibition [1]: inactive

GI50 [3]: > 10000 nM
Compound: COc1ncc(-c2ccc3ncnc(N[C@H]4CCN(C(=O)CCCCCCC(=O)N[C@H](C(=O)N5C[C@H](O)C[C@H]5C(=O)NCc5ccc(-c6scnc6C)cc5)C(C)(C)C)C4)c3c2)cc1C#N
inhibition [1]: inactive

GI50 [3]: > 10000 nM
Compound: COc1ncc(-c2ccc3ncnc(N[C@H]4CCN(C(=O)CCC(=O)NCCCC(=O)Nc5cccc6c5CN(C5CCC(=O)NC5=O)C6=O)C4)c3c2)cc1C#N (some centres not stated)
inhibition [1]: inactive

GI50 [3]: 490 nM
Compound: COc1ncc(-c2ccc3ncnc(N[C@H]4CCN(C(=O)C5CCN(CCCCCCCCCC(=O)Nc6cccc7c6CN(C6CCC(=O)NC6=O)C7=O)CC5)C4)c3n2)cc1C(=O)Oc1ccccc1 (some centres not stated)
inhibition [1]: Active | GI50 [2]: > 10000 nM

GI50 [3]: > 10000 nM
Compound: COc1ncc(-c2ccc3ncnc(N[C@H]4CCN(C(=O)CCCCCC(=O)Nc5cccc6c5CN(C5CCC(=O)NC5=O)C6=O)C4)c3c2)cc1C#N (some centres not stated)
inhibition [1]: inactive

GI50 [3]: > 10000 nM
Compound: COc1ncc(-c2ccc3ncnc(N[C@H]4CCN(C(=O)CCCCCCC(=O)Nc5cccc6c5CN(C5CCC(=O)NC5=O)C6=O)C4)c3c2)cc1C#N (some centres not stated)
inhibition [1]: inactive

GI50 [3]: > 10000 nM
Compound: COc1ncc(-c2ccc3ncnc(N[C@H]4CCN(C(=O)CCC(=O)NCCCCCC(=O)Nc5cccc6c5CN(C5CCC(=O)NC5=O)C6=O)C4)c3c2)cc1C#N (some centres not stated)
inhibition [1]: inactive

GI50 [3]: > 10000 nM
Compound: COc1ncc(-c2ccc3ncnc(N[C@H]4CCN(C(=O)CCC(=O)NCC(=O)Nc5cccc6c5CN(C5CCC(=O)NC5=O)C6=O)C4)c3c2)cc1C#N (some centres not stated)
inhibition [1]: inactive
